# Measurements as given in ChEMBL document CHEMBL1201862, “PubChem BioAssay data set” (2004).
# pIC50: −log10 of the molar value. Activity calls are given as the source filed them.
# Experiments:
# [1] = target: Protein disulfide-isomerase (Homo sapiens, UniProt P07237); assay: PDI inhibitors, insulin turbidity readout, confirmation, biochemical, dry powder samples, set 2 (AID 652146)
# [2] = HEK293 cell cytotoxicity, dose response, cytotoxicity control, ATP luminescence, dry powder, Set6 (AID 743142); type: functional, cell-based
# [3] = A549 cell cytotoxicity, dose response, cytotoxicity control, CellTiter-Glo luminescence, dry powder, set 3 (AID 743146); type: functional, cell-based
# [4] = miR-122 activators in hepatoma reporter cells, dose response, cell-based, Huh7 psiCHECK-miR122, Renilla luciferase, cherry-picked (AID 651956); type: functional;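 also: huh7 hepatoma cells stably carrying a psiCHECK-2 miR-122 sensor plasmid; renilla luciferase signal reporting endogenous miR-122 activity after 48 h compound exposure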
# [5] = HEK293T cytotoxicity, dose response, cytotoxicity control for miR-122 modulator project, cell-based, inhibitor set, cherry-pick, set 2 (AID 720697); type: functional
# [6] = HEK293T cytotoxicity, dose response, cytotoxicity control for miR-122 modulator project, cell-based, activator set, cherry-pick (AID 720690); type: functional;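 also: HEK293T human cells scored for general mammalian cytotoxicity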
# [7] = target: Metabotropic glutamate receptor 3 (Rattus norvegicus, UniProt P31422); assay: mGlu3 negative allosteric modulator potency, dose response, HEK/GIRK cells, thallium flux, rat (AID 651839); type: functional
# Metabotropic glutamate receptor 3, sequence (P31422 whole entry): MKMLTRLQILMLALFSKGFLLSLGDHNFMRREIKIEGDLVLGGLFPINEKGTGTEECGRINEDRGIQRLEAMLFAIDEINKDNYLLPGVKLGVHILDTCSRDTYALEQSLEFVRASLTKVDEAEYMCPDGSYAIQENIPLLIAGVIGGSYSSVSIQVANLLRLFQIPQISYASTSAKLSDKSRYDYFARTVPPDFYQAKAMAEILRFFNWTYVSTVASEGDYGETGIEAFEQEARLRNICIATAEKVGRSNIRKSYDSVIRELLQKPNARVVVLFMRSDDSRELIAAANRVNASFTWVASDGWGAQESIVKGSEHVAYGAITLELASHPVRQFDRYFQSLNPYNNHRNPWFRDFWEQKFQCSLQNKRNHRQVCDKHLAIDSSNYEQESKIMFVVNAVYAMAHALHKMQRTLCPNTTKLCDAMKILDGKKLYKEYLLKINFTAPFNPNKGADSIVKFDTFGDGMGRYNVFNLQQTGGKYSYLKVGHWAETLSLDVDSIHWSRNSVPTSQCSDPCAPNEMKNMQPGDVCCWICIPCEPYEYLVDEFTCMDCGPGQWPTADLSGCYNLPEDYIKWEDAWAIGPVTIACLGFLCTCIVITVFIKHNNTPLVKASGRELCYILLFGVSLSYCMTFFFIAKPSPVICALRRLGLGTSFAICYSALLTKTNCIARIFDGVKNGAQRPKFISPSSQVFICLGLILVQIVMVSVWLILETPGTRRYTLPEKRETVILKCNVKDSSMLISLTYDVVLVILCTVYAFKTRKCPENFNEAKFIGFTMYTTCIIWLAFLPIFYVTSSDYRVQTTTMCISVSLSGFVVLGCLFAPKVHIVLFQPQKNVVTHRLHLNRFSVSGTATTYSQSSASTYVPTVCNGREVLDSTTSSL
# Beta-galactosidase = Beta-galactosidase (Escherichia coli, UniProt Q8VNN2); assay: Dose response counterscreen for EBI2 assay utilizing the enzyme, b-galactosidase.; type: functional
# Beta-galactosidase, sequence (Q8VNN2 whole entry): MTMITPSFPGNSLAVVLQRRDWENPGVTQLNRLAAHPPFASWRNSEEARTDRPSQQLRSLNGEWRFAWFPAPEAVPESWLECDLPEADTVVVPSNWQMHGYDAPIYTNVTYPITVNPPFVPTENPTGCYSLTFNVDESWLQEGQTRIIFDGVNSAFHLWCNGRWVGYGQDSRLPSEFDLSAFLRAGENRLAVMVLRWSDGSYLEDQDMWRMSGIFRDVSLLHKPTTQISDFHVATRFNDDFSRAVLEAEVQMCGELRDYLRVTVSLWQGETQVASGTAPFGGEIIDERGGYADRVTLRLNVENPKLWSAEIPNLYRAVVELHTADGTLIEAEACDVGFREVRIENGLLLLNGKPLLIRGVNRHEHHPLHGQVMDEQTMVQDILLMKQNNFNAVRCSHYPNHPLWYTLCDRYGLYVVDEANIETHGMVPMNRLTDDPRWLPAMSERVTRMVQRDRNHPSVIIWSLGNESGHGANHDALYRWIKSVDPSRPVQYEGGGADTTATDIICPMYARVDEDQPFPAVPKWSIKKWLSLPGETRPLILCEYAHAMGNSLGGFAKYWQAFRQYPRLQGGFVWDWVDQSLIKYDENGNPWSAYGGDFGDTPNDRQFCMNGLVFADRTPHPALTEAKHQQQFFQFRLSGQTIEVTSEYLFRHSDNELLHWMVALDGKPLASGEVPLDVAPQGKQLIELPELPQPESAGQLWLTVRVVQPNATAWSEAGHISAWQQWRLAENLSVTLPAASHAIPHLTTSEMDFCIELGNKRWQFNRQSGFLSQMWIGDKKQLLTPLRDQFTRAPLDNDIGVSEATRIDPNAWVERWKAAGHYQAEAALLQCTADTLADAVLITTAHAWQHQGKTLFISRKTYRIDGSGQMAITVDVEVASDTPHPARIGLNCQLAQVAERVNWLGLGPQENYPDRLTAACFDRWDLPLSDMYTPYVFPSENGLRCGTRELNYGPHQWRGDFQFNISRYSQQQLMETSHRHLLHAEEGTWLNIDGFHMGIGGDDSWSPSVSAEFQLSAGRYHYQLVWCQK
# Galanin receptor type 3 = Galanin receptor type 3 (Homo sapiens, UniProt O60755); assay: Fluorescence-based cell-based primary high throughput dose response assay to identify antagonists of the Galanin Receptor 3 (GalR3).; type: functional
# Galanin receptor type 3, sequence (O60755 whole entry): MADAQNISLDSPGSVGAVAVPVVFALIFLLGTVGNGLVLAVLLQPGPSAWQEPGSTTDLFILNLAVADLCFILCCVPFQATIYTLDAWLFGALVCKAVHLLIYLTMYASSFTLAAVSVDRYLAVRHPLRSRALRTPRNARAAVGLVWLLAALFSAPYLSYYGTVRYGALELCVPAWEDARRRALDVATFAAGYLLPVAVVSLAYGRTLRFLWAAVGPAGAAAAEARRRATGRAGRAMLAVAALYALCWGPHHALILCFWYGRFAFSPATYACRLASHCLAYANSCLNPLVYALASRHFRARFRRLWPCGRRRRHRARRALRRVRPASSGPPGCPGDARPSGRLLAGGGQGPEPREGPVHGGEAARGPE
# cells [8] = type: functional, cell-based; details: HEK-CNG
# [9] = NIH-3T3 fibroblast cytotoxicity, dose response, cytotoxicity control, cell-based, fluorescence, Alamar Blue, secondary assay (AID 2327); type: functional;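 also: NIH-3T3 mouse fibroblasts cultured with fluconazole at 8 µg/mL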
# [10] = test system: Streptococcus sp. 'group A'; assay: growth inhibition of control SK(-) GAS strain, dose response, counter-screen for streptokinase expression inhibitor project, luminescence, kanamycin, BacTiterGlo, confirmation (AID 1900); type: functional, organism-based
# BJ [11] = assay: cytotoxicity toward BJ-TERT fibroblasts, dose response, cell-based, RAS-independent, luminescence (AID 1933); type: functional; details: Homo sapiens
# Streptokinase A = target: T1, Streptokinase A (Streptococcus pyogenes serotype M1, UniProt P10520); assay: S. pyogenes streptokinase expression inhibitors, potency, dose response, plasminogen activation absorbance, OD405 (AID 1914); type: functional, Streptococcus pyogenes M1 GAS;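 also: secreted streptokinase activity via plasminogen activation per viability signal from cell pellet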
# T1 sequence (P10520 whole entry): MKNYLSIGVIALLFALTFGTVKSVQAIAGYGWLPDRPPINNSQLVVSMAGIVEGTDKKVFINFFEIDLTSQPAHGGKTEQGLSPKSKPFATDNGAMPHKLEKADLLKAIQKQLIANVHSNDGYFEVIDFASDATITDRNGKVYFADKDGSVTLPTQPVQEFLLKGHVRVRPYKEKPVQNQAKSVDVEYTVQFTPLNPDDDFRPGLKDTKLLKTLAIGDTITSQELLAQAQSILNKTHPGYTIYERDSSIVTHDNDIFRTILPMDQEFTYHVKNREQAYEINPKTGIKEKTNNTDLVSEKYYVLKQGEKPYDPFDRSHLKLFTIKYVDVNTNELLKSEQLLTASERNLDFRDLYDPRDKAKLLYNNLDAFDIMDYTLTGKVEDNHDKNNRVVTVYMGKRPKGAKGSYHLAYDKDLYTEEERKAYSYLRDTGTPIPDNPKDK
# BJ [12] = assay: cells; type: functional, cell-based; details: Homo sapiens
# [13] = C. albicans growth with fluconazole, confirmation, fluorescence, retest (AID 2467); type: functional, cell-based
# [14] = microbe, parasite or virus in culture; type: functional; details: Mycobacterium tuberculosis
# BJ [15] = assay: cytotoxicity toward BJ-TERT-LT-ST fibroblasts, dose response, cell-based, RAS-independent, luminescence (AID 1935); type: functional; details: Homo sapiens;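 also: BJ fibroblasts immortalized with TERT plus LT and ST oncogenes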
# [16] = cytotoxicity toward DRD oncogenic fibroblasts, dose response, cell-based, non-viral oncogenic, luminescence (AID 1934); type: functional; details: Homo sapiens
# [17] = target: Induced myeloid leukemia cell differentiation protein Mcl-1 (Homo sapiens, UniProt Q07820); type: functional
# Induced myeloid leukemia cell differentiation protein Mcl-1, sequence (Q07820 whole entry): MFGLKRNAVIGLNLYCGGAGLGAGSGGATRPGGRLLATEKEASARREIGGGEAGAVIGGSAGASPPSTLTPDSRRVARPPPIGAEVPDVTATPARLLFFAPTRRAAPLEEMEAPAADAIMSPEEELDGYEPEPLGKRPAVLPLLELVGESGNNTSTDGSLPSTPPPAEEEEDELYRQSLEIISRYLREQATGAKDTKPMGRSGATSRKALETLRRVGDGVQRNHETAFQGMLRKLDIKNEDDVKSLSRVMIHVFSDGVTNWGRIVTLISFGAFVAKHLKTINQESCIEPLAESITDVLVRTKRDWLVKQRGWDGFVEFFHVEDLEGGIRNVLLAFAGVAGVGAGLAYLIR
# Streptococcus = assay: Group A Streptococcus viability loss, dose response, counter-screen for streptokinase expression inhibitor project, luminescence, BacTiterGlo (AID 1915); type: functional, organism-based;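 also: potency for reduction of bacterial viability or growth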
# [18] = THP-1 cell cytotoxicity, dose response, cytotoxicity control for non-replicating M. tuberculosis project (AID 489025); type: functional
# [19] = HepG2 cell cytotoxicity, dose response, cytotoxicity control for non-replicating M. tuberculosis project (AID 489018); type: functional; details: Mycobacterium tuberculosis
# [20] = Vero E6 cell cytotoxicity, dose response, cytotoxicity control for non-replicating M. tuberculosis project, secondary assay (AID 492998); type: functional, VeroE6; details: Vero C1008
# [21] = target: T2, Heat shock factor protein 1 (Mus musculus, UniProt P38532); assay: HSF1 potentiators in luciferase reporter cells, confirmation, cell-based, NIH3T3, luminescence, dose retest (AID 435004); type: functional;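 also: stress induced by proteasome inhibitor MG132 added 30 min after compound; luciferase reporter driven by HSF1 response element in NIH3T3 cells; actives raise luminescence as potentiators of the MG132 stress response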
# T2 sequence (P38532 whole entry): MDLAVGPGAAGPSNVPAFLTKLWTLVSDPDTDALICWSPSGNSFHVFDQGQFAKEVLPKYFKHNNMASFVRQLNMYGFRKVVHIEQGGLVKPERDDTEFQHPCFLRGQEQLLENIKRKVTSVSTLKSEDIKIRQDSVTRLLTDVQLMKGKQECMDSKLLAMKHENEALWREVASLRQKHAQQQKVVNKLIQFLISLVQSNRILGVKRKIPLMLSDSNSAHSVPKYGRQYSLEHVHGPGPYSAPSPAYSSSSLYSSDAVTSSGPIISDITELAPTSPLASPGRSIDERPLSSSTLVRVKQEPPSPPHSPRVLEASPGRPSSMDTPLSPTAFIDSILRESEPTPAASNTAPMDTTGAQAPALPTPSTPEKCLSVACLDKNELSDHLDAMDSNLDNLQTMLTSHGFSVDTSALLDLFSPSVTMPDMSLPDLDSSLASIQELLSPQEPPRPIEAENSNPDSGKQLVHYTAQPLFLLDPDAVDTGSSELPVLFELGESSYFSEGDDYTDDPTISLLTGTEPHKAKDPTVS
# cells [22] = type: functional
# INS1 = assay: beta cell apoptosis inhibitors, cytokine rescue, dose response, luminescence, retest (AID 449756); type: functional, cell-based; details: Rattus norvegicus;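 also: cell death triggered by IL-1 beta plus TNF-alpha plus IFN-gamma mixture; protective hits raise ATP signal compared with cytokine alone wells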
# [23] = target: Dual specificity tyrosine-phosphorylation-regulated kinase 1A (Rattus norvegicus, UniProt Q63470); type: biochemical, Homo sapiens
# P388/ADR = assay: cells; type: functional; details: Mus musculus
# Melanocortin receptor 4 = Melanocortin receptor 4 (Homo sapiens, UniProt P32245); type: functional, cell-based;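 also: Cell-based assay with luminescence read-out, confirmatory dose-response testing for agonist activity of biased ligands at MC4R; human U2OS cells with tagged receptor and beta-arrestin; potency of agonists that increase receptor coupling to beta-arrestin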
# Melanocortin receptor 4, sequence (P32245 whole entry): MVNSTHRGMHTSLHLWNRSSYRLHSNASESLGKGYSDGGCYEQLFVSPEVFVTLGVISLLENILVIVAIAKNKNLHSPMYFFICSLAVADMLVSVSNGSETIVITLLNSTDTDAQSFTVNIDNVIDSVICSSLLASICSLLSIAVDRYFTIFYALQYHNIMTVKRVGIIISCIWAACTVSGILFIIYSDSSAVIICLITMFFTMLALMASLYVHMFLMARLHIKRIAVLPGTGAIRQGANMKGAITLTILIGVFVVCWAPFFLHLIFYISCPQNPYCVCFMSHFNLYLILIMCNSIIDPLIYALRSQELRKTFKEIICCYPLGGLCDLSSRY
# SN12K1 = assay: cells; type: functional; details: Homo sapiens
# P388 = assay: cells; type: functional; details: Mus musculus
# [24] = HeLa cell cytotoxicity, dose response, cytotoxicity control for MgcRacGAP inhibitor project (AID 624300); type: functional
# [25] = target: T3, Rac GTPase-activating protein 1 (Homo sapiens, UniProt Q9H0H5); assay: MgcRacGAP GTPase-activating activity inhibitors, confirmation, biochemical, ADP Hunter fluorescence, primary and confirmatory (AID 624330); type: functional
# T3 sequence (Q9H0H5 whole entry): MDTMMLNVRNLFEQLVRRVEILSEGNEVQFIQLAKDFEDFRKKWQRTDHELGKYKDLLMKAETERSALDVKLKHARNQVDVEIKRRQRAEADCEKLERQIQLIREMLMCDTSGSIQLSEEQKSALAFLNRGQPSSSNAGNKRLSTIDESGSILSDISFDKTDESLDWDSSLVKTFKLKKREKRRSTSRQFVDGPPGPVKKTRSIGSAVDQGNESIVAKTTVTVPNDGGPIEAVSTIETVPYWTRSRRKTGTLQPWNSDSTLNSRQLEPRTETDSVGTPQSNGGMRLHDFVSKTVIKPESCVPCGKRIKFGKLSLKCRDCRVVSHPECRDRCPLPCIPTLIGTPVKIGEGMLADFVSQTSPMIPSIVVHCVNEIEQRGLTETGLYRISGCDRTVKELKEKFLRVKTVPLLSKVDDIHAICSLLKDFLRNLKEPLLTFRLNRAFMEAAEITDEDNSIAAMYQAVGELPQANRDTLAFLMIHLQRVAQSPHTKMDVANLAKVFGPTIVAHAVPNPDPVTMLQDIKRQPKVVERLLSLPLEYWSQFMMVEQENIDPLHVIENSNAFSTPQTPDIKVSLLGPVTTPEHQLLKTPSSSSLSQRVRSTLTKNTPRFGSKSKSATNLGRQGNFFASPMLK
# [26] = target: SWI/SNF-related matrix-associated actin-dependent regulator of chromatin subfamily A member 2 (Homo sapiens, UniProt P51531); assay: Luminescence-based cell-based high throughput dose response assay to identify activators of the function of SWI/SNF related, matrix associated, actin dependent regulator of chromatin, subfamily a, member 2 (SMARCA2, BRM).; type: functional
# SWI/SNF-related matrix-associated actin-dependent regulator of chromatin subfamily A member 2, sequence (P51531 whole entry): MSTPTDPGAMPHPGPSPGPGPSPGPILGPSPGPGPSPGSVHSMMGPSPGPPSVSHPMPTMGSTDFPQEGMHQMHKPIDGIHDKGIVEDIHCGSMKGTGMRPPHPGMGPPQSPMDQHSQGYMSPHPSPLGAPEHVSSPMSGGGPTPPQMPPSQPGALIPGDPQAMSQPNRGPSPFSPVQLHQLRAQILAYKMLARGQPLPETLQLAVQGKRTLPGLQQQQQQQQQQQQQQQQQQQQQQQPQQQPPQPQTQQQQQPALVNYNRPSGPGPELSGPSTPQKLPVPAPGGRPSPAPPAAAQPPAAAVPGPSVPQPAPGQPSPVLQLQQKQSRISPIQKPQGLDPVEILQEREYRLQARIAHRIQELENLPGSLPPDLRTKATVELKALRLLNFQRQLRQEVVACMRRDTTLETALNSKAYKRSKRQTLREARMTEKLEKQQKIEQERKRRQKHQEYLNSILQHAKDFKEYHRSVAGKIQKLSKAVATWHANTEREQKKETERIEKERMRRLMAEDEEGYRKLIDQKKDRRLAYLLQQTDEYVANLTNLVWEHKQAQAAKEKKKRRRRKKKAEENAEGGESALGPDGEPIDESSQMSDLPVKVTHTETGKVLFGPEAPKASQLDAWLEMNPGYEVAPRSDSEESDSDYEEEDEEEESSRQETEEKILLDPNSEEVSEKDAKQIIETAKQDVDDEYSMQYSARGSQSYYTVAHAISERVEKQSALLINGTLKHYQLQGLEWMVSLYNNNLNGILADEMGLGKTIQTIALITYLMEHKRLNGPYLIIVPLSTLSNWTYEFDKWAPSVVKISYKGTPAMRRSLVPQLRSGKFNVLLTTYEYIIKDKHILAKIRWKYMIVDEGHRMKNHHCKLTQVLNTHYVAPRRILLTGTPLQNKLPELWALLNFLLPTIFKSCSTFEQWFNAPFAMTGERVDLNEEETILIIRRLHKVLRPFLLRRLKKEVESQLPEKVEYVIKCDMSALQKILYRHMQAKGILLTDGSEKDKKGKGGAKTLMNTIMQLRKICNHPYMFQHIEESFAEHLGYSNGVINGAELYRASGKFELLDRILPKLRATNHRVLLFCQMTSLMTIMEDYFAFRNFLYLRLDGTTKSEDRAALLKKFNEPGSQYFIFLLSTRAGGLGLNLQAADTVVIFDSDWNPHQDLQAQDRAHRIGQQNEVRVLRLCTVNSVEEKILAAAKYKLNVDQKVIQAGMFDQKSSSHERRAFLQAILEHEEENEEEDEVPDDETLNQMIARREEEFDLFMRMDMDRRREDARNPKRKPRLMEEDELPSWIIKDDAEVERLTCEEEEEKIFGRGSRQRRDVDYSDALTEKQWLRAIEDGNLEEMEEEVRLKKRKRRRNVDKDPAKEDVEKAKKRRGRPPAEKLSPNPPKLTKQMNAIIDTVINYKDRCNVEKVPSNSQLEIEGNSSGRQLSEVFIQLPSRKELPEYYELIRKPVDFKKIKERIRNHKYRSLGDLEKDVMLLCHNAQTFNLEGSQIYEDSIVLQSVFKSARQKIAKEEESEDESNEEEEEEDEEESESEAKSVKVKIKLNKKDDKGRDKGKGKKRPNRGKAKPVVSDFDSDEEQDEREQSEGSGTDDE
# [27] = Counterscreen for activators of the function of SWI/SNF related, matrix associated, actin dependent regulator of chromatin, subfamily a, member 2 (SMARCA2, BRM): Luminescence-based cell-based high throughput dose response assay to identify non-selective compounds using the VP16 reporter assay.; type: functional
# [28] = target: T4, DNA repair protein RAD52 homolog (Homo sapiens, UniProt P43351); type: functional, biochemical
# T4 sequence (P43351 whole entry): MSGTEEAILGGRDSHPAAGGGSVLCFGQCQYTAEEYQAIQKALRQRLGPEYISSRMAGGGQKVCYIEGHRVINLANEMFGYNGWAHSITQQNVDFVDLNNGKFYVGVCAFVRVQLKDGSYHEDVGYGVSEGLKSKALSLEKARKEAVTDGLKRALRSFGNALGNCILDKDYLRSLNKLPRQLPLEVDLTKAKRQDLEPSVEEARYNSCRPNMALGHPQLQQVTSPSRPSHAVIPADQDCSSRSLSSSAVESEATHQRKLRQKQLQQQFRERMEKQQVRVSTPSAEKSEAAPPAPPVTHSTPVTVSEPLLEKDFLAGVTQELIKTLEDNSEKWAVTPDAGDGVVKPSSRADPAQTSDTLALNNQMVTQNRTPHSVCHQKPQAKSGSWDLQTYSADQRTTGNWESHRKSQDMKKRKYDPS
# HEK293 [29] = assay: cells; details: Homo sapiens
# HEK293 [30] = assay: cells; details: Homo sapiens; remark: listed apart in the source
# Protein disulfide-isomerase, sequence (P07237 whole entry): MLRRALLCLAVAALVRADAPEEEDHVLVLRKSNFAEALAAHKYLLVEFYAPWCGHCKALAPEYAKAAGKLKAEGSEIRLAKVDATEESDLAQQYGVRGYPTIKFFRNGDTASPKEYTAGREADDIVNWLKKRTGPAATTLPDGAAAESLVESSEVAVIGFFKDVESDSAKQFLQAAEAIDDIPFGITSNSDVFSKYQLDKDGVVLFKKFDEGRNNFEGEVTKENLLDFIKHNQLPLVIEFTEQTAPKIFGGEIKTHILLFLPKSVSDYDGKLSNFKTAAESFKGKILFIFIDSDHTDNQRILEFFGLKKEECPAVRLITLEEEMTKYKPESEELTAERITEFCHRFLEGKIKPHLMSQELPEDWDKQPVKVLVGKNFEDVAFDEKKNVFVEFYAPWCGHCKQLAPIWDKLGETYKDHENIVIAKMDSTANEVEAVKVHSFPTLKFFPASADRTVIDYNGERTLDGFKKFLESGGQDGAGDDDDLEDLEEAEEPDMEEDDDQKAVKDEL
compound,measurement,setting,value
CCOC(=O)C1(CCOC)CCN(Cc2ccc(O)c(Cl)c2)CC1,AC50,[1],> 30 µM (inactive)
O=C(CCNC(=O)c1cccc(Cl)c1)N[C@@H]1CCCc2ccccc21,AC50,[2],9.96 µM (active)
same,AC50,[3],> 52 µM (inactive)
C[C@H](CO)N1C[C@H](C)[C@H](CN(C)CC2CCCCC2)Oc2ccc(NC(=O)Nc3ccc(C(F)(F)F)cc3)cc2C1=O,AC50,[4],31.5 µM (active)
same,AC50,[5],15.1 µM (active)
same,AC50,[6],17.1 µM (active)
COc1ccc(C#Cc2ccc(C(=O)N3CCC[C@@H](CO)C3)cc2)c(F)c1,pIC50,[7],5.31
COc1ccccc1N1CCN(C(=O)c2cc3c(s2)-c2ccccc2OC3)CC1,IC50,Beta-galactosidase,> 80 µM (inactive)
CC1(CSc2ccccc2)CC(=O)N1 (centres undefined),IC50,Galanin receptor type 3,> 29.9 µM (inactive)
same,EC50,cells [8],> 29.9 µM (inactive)
COc1ccc2[nH]c3c(C)c4ccncc4c(C)c3c2c1,EC50,[9],4.36 µM (inconclusive)
same,EC50,[10],2.52 µM (active)
same,EC50,BJ [11],3.65 µM (inconclusive)
same,EC50,Streptokinase A,> 150 µM (not active)
same,EC50,BJ [12],9.28 µM (inconclusive)
same,EC50,[13],0.698 µM (active)
same,CC50,[14],0.838 µM (active)
same,EC50,BJ [15],4.95 µM (inconclusive)
same,EC50,[16],2.51 µM (active)
same,IC50,[17],> 54 µM (active)
same,EC50,Streptococcus,8.86 µM (active)
same,CC50,[18],2.94 µM (active)
same,CC50,[19],8.79 µM (active)
same,CC50,[20],0.93 µM (active)
same,EC50,[21],> 260 µM (inconclusive)
same,IC50,cells [22],0.37 µM (active)
same,AC50,INS1,1.93 µM (active)
same,AC50,[23],2.86 µM (active)
same,GI50,P388/ADR,0.439 µM (active)
same,EC50,Melanocortin receptor 4,> 89.3 µM (inactive)
same,GI50,SN12K1,0.245 µM (active)
same,GI50,P388,0.239 µM (active)
same,CC50,[24],31.2 µM (active)
same,IC50,[25],28.8 µM (active)
same,EC50,[26],> 3.38 µM (active)
same,EC50,[27],> 91.3 µM (inactive)
same,AC50,[28],< 11.1 µM (active)
same,EC50,HEK293 [29],> 59.7 µM (inactive)
same,EC50,HEK293 [30],> 59.7 µM (inactive)
